Measurements as given in patent US7345070B2, “Peroxisome proliferator activated receptor agonists” (Eli Lilly and Company, priority 2000, dated 2008).
pIC50: −log10 of the molar value.

How the values were obtained:
huPPARγ [1] = target: T1, huPPARγ (Homo sapiens, UniProt P37231); assay: DNA-dependent binding (ABCD binding) using SPA technology, huPPARγ; conditions: SPA displacement of tritium-labeled PPARγ agonist radioligand
T1 sequence (P37231 1-505): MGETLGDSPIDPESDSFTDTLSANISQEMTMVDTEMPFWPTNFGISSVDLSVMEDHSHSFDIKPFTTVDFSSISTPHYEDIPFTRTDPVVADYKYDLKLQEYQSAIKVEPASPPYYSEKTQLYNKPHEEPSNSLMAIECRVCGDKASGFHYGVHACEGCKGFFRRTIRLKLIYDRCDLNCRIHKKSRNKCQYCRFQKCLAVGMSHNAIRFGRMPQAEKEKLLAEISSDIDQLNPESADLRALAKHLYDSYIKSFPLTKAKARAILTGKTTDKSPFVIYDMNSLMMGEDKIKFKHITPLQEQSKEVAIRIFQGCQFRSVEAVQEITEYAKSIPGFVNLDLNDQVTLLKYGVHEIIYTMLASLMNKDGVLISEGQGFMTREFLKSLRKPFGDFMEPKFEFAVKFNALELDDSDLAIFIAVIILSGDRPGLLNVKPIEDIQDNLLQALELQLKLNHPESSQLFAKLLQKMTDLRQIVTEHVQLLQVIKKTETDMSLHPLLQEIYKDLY
T1 sequence (P19793 1-462 partner): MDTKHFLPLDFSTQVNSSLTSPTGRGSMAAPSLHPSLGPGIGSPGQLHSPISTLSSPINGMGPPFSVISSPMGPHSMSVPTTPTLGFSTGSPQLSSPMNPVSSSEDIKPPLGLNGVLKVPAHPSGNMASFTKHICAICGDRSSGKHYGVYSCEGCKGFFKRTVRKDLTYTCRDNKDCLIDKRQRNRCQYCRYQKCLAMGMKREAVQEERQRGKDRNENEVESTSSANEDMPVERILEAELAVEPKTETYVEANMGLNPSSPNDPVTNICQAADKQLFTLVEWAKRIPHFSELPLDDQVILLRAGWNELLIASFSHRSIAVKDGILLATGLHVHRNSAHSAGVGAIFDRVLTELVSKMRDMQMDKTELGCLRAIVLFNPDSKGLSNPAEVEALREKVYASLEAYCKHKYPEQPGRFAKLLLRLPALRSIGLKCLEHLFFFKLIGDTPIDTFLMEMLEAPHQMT
Procedure: (§1) DNA-dependent binding (ABCD binding) was carried out using SPA technology with PPAR receptors. Tritium-labeled PPARα and PPARγ agonists were used as radioligands for generating displacement curves and IC50 values with compounds of the invention. Cotransfection assays were carried out in CV-1 cells. The reporter plasmid contained an acylCoA oxidase (AOX) PPRE and TK promoter upstream of the luciferase reporter cDNA. Appropriate PPARs and RXRα were constitutively expressed using plasmids containing the CMV promoter. […] In order to eliminate such interference, a GAL4 chimeric system was used in which the DNA binding domain of the transfected PPAR was replaced by that of GAL4, and the GAL4 response element was utilized in place of the AOX PPRE. Cotransfection efficacy was determined relative to PPARα agonist and PPARγ agonist reference molecules. Efficacies were determined by computer fit to a concentration-response curve, or in some cases at a single high concentration of agonist (10 μM). For binding or cotransfection studies with receptors other than PPARs, similar assays were carried out using appropriate ligands, receptors, reporter constructs, etc., for that particular receptor.
(§2) These studies were carried out to evaluate the ability of compounds of the invention to bind to and/or activate various nuclear transcription factors, particularly huPPARα (“hu” indicates “human”) and huPPARγ. These studies provide in vitro data concerning efficacy and selectivity of compounds of the invention. Furthermore, binding and cotransfection data for compounds of the invention were compared with corresponding data for marketed compounds that act on either huPPARα or huPPARγ.

huPPARα [2] = target: T2, huPPARα (Homo sapiens, UniProt Q07869); assay: DNA-dependent binding (ABCD binding) using SPA technology, huPPARα; conditions: SPA displacement of tritium-labeled PPARα agonist radioligand
T2 sequence (Q07869 1-468): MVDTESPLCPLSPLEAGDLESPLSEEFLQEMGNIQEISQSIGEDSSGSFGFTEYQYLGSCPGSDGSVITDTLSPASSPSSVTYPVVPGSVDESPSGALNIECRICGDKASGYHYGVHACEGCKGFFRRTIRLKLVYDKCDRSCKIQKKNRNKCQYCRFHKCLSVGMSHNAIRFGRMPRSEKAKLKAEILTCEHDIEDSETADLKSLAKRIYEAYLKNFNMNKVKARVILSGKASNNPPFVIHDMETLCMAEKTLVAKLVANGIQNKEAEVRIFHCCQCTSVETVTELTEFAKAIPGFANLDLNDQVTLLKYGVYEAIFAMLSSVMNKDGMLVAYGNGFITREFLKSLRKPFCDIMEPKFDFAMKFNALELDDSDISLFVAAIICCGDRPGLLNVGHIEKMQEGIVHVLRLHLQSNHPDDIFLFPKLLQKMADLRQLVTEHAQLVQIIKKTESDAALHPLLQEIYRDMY
T2 sequence (P19793 1-462 partner): T1 sequence (P19793 1-462 partner)
Procedure: as §1, §2

huPPARα [3] = assay: Cotransfection assay in CV-1 cells, huPPARα; format: cell-based, human; conditions: GAL4 chimeric system, relative to PPARα agonist reference molecule
Procedure: as §1, §2

HuapoAI transgenic mice = assay: Evaluation of triglyceride and cholesterol level in HuapoAI transgenic mice; format: in vivo; conditions: Mus musculus, 168 h; human apoAI transgenic mice, 30 mg/kg oral gavage daily for 7 days, FPLC area under the curve, over mice receiving vehicle; read-out: % HDLc Increase
Procedure: After an acclimation period of 2 weeks, animals were individually identified by ear notches, weighed, and assigned to groups based on body weight. Beginning the following morning, mice were dosed daily by oral gavage for 7 days using a 20 gauge, 1½″ curved disposable feeding needle (Popper & Sons). […] Prior to termination on day 7, mice were weighed and dosed. Three hours after dosing, animals were anesthetized by inhalation of isoflurane (2-4%; Abbott Laboratories, Chicago, Ill.) and blood obtained via cardiac puncture (0.7-1.0 ml). Whole blood was transferred to serum separator tubes (Vacutainer SST), chilled on ice, and permitted to clot. Serum was obtained after centrifugation at 4° C. and frozen until analysis for triglycerides, total cholesterol, compound levels, and serum lipoprotein profile by fast protein liquid chromatography (FPLC) coupled to an inline detection system. After sacrifice by cervical dislocation, the liver, heart and epididymal fat pads were excised and weighed.
The absorbance of the dye produced is linearly related to the analyte in the sample. The assays were further modified in our laboratory for use in a 96 well format. […] An additional aliquot of sample, pipetted to a third well and diluted in 200 μl water, provided a blank for each specimen. […] Sample absorbances were compared to a standard curve (100-800, 10-500, and 100-400 mg/dl for glucose, triglycerides and total cholesterol, respectively). […] All samples from an experiment were assayed at the same time to minimize inter-assay variability.
Serum lipoproteins were separated and cholesterol quantitated with an in-line detection system. Sample was applied to a Superose® 6 HR 10/30 size exclusion column (Amersham Pharmacia Biotech) and eluted with phosphate buffered saline-EDTA at 0.5 ml/min. […] The change in voltage corresponding to change in cholesterol concentration was plotted vs time and the area under the curve corresponding to the elution of VLDL, LDL and HDL was calculated using Perkin Elmer Turbochrome software.

huPPARγ [4] = target: T1, huPPARγ; assay: Cotransfection assay in CV-1 cells, huPPARγ; format: cell-based; design: Appropriate PPARs and RXRα were constitutively expressed using plasmids containing the CMV promoter; expressed in transfected cells; host or cells: CV-1 cells; conditions: AOX PPRE luciferase reporter, relative to PPARγ agonist reference molecule; for Emax: read-out: huPPARγ CTF Efficacy
Procedure: as §1, §2

Row | Structure (SMILES) | pIC50 (huPPARγ [1]) | pIC50 (huPPARα [2]) | huPPARα CTF Efficacy (huPPARα [3]) | change in vivo at 30 mg/kg (HuapoAI transgenic mice) | Emax (huPPARγ [4]) | huPPARγ CTF Efficacy (huPPARγ [4])
1 | CCC(Cc1ccc(OCCc2nc(C3(C)CCCCC3)oc2C)cc1)(Oc1ccccc1)C(=O)O (stereo not drawn) [Example 49, 2-(4-{2-[5-Methyl-2-(1-methyl-cyclohexyl)-oxazol-4-yl]-ethoxy}-benzyl)-2-phenoxy-butyric acid] | 6.18 | 6.76 | 63% | 17% | 58% | 
2 | CC(C)(Oc1ccc(C(=O)c2ccc(Cl)cc2)cc1)C(=O)O [Fenofibric acid, reference compound] |  |  | 16% |  |  | 0%
3 | Cc1oc(C2CCCCC2)nc1CCOc1ccc(CC(C)(Oc2ccc(Cl)cc2)C(=O)O)cc1 (stereo not drawn) [Example 31, 2-(4-Chlorophenoxy)-3-{4-[2-(2-cyclohexyl-5-methyl-oxazol-4-yl)-ethoxy]-phenyl}-2-methyl-propionic acid] | 7.72 | 7.28 | 63% | 114% | 73% | 
